These results are taken from US4525360A, “Anti-psychotic phenylindene derivatives and acid addition salts thereof” (Kefalas A/S, priority 1982, dated 1985).

Structures can show the parent of a compound that is named as a salt. Where two headings read alike, the source gives them in different places.

Usually ED50 stands for the dose that gives a 50% effect, or the effect in half of the subjects. The IC50 is the midpoint of a concentration-inhibition curve.

Assay [1] deals with methylphenidate. Put plainly: Methylphenidate antagonism, mice i.p. Type of assay: in vivo. The following applies: Mus musculus, ip, read-out: MePh Antag. ED50 (ip). The method, then: Methylphenidate antagonism (ED50 μmol/kg i.p.)
Perspex observation cages without bottom and lid, consisting of 5 sections each measuring 12×25×30 cm.
Two hours after injection of test substance, methylphenidate, 60 mg/kg, is injected s.c. After administration of methylphenidate the mice are placed in the observation cages, 2 in each cage, where they remain for exactly 1 hour. The cages are placed on corrugated paper, the corrugations facing upwards. It is examined whether the mice have been biting the corrugated paper or not.
The result is stated in fractions: 0/3, 1/3, 2/3 and 3/3 where 0, 1, 2 and 3 are the number of pairs which have not been biting on receipt of the dose in question.

In assay [2] the test system is 5-HT, rat fundus strip. As to the kind of experiment: 5-HT antagonism, rat fundus strip. The following applies: 10 min, read-out: 5HT rat-fundus-strip IC50. The method, then: 5-HT antagonism, rat fundus strip
5-hydroxytryptamine (5-HT).
Rats are killed by a blow on the head and exsanguinated. The stomach fundus is removed and carefully cleaned with Krebs solution at 30° C. The fundus is then stretched over a rounded end of a plastic rod about the thickness of a pencil, whereby the longitudinal direction of the muscle fibers is visible. The fundus is halved by carefully cutting in the central line and in the direction of these fibres. Along this incision two strips with a length of 15-25 mm and with width 1.5-2.5 mm are cut, one from each half of the fundus. The mucosa is then carefully removed. A thread is attached to each end of a strip. One thread is fixed to a pin in the bottom of the organ bath and the other thread is fixed to an isotonic transducer. The strip is kept under a tone of 1.5 to 2.0 g. […] Concentration response curves to 5-HT are obtained by adding 5-HT to the bath in increasing concentrations (0.1 ml of 10^-9 M resulting in 1.0×10^-11 M in the bath, 0.2 ml of 10^-9 M resulting in 3.0×10^-11 M, 0.1 ml of 10^-8 M resulting in about 1×10^-10 M, 0.2 ml of 10^-8 M resulting in about 3×10^-10 M--0.2 ml of 10^-4 resulting in about 3×10^-6 M in the bath). Each concentration of 5-HT is allowed to exert its maximal effect (1-10 min) before the next is added. When the maximal response is reached the tissue is carefully washed. The test substance is added to the bath for 10 min. before examining its effect on a new cumulative 5-HT concentration response curve. From the control concentration effect curve the Km for 5-HT is calculated.
The results are recorded as mean percentage inhibition.
Substrate concentration for 5-HT: 1.0×10^-9 M to 1.0×10^-8 M.
Michaelis-Menten constant for 5-HT is estimated each time.

Assay [3] has as its target T1, 5-HT2 receptors (Rattus norvegicus, UniProt P14842).
T1 construct: Whole cortex is dissected out and homogenized; from tissue; host or cells: rat whole cortex membranes
As to the kind of experiment: 3H-spiroperidol binding to rat cortical membranes (5-HT2 receptors). Particulars: Table 1, read-out: 3H-Spiroperidol bindings 5-HT2 receptors IC50. As to the method: ^3 H-spiroperidol binding to rat cortical membranes (5-HT2 Receptors)
50 mM Tris buffer pH 7.7 (at 25° C.) (icecold) stored in the cold: 7.38 gram Trisma®--7.7/l.
Mixed Tris buffer (icecold) made fresh every day jut before use.
10^-5 M Mianserin: 3.01 mg mianserin-HCl/10 ml H2 O, Diluted 1:100.
3×10^-6 M Sulpiride: 3.41 mg sulpiride/10 ml H2 O, Diluted 0.3 ml to 100 ml.
Whatman GF/B filters 25 mm.
Spiroperidol[benzene ring--^3 H--] approx. 30 Ci/mmol from New England Nuclear
(Diluted daily to 5 nM in 3×10^-6 M sulpiride solution).
Ultra Turrax homogenizer.
Rats are killed by guillutination, exsanguinated and their brains removed. Whole cortex is dissected out and homogenized (Ultra Turrax, 10 sec.) in 100 vol (w/v) icecold 50 mM buffer pH 7.7 (at 25° C.). The homogenate is centrifuged twice at 20.000 g (13.000 rpm) for 10 min. at 4° C., with rehomogenization (Ultra Turrax, 10 sec.) of the intermediate pellet in fresh buffer. The pellet is homogenized (Ultra Turrax, 10 sec.) in 80 volumes (w/v) of icecold, freshly prepared mixed Tris buffer.
(§1) Incubation tubes in triplicate receive on ice 100 μl of drugs dissolved in water, 100 μl of 5 nM ^3 H-spiroperidol and 800 μl of the cold membrane suspension. The tubes are incubated at 37° C. for 10 min. and rapidly filtered under vacuum through Whatman GF/B filters. The tubes are rinsed with 5 ml and thereafter the filters with 2×5 ml icecold 50 mM Tris buffer, pH 7.7 (at 25° C.). The radioactivity on the filters is determined by liquid scintillation counting after the addition of 5 ml of picofluor-15. The unspecific binding of ^3 H-spiroperidol is determined by incubating the samples with 10^-6 M mianserine.
Each series consist of 15-16 triple samples (3 controls, 2-3 containing 10^-6 mianserine and two series of test compounds in 5 concentrations).
The means of the control samples and of the 10^-6 M mianserine samples are calculated.

A short description of assay [4]: Catalepsy wire mesh, rat, max. Particulars: po, read-out: Catalep. ED50 (po). Type of assay: in vivo, rats. As to the method: Catalepsy wire mesh, rat, max. (ED50 μmol/kg p.o.)
A vertical wire netting (50 cm×49 cm). The meshes (openings) of the netting are square (1 cm×1 cm). The wire diameter is 2 mm.
The animals are labeled and used in groups of five. The test substance is administered orally (p.o.) at 4 dose levels selected from a fixed dose scale.
The animals are placed in the middle of the vertical wire netting 60, 120, 180, 240, 300 and 360 minutes after administration of the test compound. The animals are considered cataleptic when they remain immobile during a period of 15 seconds. This cataleptic reaction is designated +.
If the rats are "atonic" and passively slide down the wire mesh they are considered not cataleptic. If the animals climb up and down the wire mesh they are nor cataleptic. In both situations the designation - is used.

Assay [5] has as its target T2, D-2 receptors (Rattus norvegicus, UniProt P61169).
T2 construct: The corpora striata are dissected out and homogenized; from tissue; host or cells: rat corpus striatum membranes
As to the kind of experiment: 3H-spiroperidol binding to rat striatal membranes (D-2 receptors). Particulars: Table 1, read-out: 3H-Spiroperidol bindings DA-2 receptors IC50. The method, then:
3H-spiroperidol binding to rat striatal membranes (D-2 receptors)
0.1% Ascorbic acid (icecold) made fresh every day
50 mM Tris buffer pH 7.7 (at 25° C.) (icecold) stored in the cold
50 mM Tris buffer pH 7.5 (at 25° C.), containing 0.2% ascorbic acid
(icecold) made fresh every day just before use
Mixed Tris buffer (icecold) made fresh every day just before use
96 ml 50 mM Tris pH 7.5 (at 25° C.) containing ascorbic acid
Whatman GF/B filters 25 mm
Spiroperidol[benzene ring-^3 H] approximately 30 Ci/mmol
from New England Nuclear. (Diluted daily to 5 nM in 0.1% ascorbic acid)
Rats are killed by guillutination, exsanguinated and their brains removed. The corpora striata are dissected out and homogenized (Ultra Turrax, 10 sec.) in 100 vol (w/v) icecold 50 mM buffer pH 7.7 (at 25° C.). The homogenate is centrifuged twice at 20.000 g (13.000 rpm) for 10 min at 4° C., with rehomogenization (Ultra Turrax, 10 sec.) of the intermediate pellet in fresh buffer. The pellet is homogenized (Ultra Turrax, 10 sec.) in 200 volumes (w/v) of icecold, freshly prepared mixed Tris buffer.
as §1, with “0.1% ascorbic acid,” for “water,”, “nM^3” for “nM ^3”, “tissue suspension .” for “membrane suspension.”, “min” for “min.”, “scintillation liquid (e.g. picofluor-15).” for “5 ml of picofluor-15.”, “10^-6M (+)butaclamol.” for “10^-6 M mianserine.”
Each series consists of 15 triple samples (3 controls, 2 containing 10^-6M (+)butaclamol, and two series of test compounds in 5 concentrations).
The means of the controls and (+)butaclamol are calculated.

[6] abbreviates: Table 1, mice, i.p., 2 h before methylphenidate 60 mg/kg s.c.
[7] abbreviates: Table 1, rat fundus strip in vitro, 10 min pre-exposure.
Where [8] appears, read: Table 1, rat, p.o., max. effect within 6 h.

T1 sequence (P14842 whole entry): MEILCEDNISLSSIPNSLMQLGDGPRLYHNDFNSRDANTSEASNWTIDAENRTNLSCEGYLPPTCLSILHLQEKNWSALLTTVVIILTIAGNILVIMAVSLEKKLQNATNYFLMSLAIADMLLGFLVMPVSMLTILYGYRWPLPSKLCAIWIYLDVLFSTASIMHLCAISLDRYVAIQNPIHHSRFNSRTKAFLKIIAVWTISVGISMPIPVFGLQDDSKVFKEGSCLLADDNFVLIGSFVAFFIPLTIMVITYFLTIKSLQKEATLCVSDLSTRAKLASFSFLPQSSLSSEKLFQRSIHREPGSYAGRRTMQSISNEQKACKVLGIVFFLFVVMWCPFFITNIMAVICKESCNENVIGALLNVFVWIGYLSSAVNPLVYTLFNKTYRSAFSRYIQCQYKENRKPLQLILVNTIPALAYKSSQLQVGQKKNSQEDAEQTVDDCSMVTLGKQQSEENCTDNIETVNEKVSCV
T2 sequence (P61169 whole entry): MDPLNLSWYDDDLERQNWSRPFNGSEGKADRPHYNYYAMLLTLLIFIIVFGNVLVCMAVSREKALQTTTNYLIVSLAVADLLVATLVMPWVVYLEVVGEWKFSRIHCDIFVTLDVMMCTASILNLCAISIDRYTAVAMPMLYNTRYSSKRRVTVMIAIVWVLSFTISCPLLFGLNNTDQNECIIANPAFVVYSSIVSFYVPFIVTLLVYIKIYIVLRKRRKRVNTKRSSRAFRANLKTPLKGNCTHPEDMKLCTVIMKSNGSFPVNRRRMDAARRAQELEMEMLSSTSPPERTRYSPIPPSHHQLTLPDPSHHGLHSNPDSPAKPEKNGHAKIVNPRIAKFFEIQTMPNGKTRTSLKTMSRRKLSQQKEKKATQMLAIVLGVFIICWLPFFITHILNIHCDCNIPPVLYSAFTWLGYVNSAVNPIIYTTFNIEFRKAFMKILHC

On to `OCCN1CCN(CC/C=C2/c3ccccc3Sc3ccc(C(F)(F)F)cc32)CC1` [Cis(Z)-flupentixol, reference compound], for which the ED50 came to 0.14 µmol/kg in assay [1] and 2.1 µmol/kg in assay [4] (Rattus norvegicus, 6 h). Besides, the IC50 in assay [2] (Rattus norvegicus) came out at 1050 nM; in assay [3], 13 nM.

Take `Cc1ccc2c(c1)C(C1=CCN(CCO)CC1)=CC2c1ccc(F)cc1` (centres unmarked) [Lu 19-153, 3-(4'-Fluorophenyl)-1-(1-hydroxyethyl-1,2,3,6-tetrahydropyrid-4-yl)-6-methyl-1-indene, hydrobromide]: the ED50 in assay [1] came out at 0.39 µmol/kg; in assay [4] (Rattus norvegicus, 6 h) it was 1.4 µmol/kg. In addition, the figures for the IC50 in assay [2] (Rattus norvegicus) and in assay [3] were 34 nM and 4.6 nM, respectively.

Turning to `O=C1NCCN1CCN1CCC(C2C=C(c3ccc(F)cc3)c3ccc(F)cc32)CC1` (centres unmarked) [Lu 20-053, 6-Fluoro-3-(4'-fluorophenyl)-1-(1-(2-imidazolidinon-1-ylethyl)-4-piperidyl)-2-indene], the ED50 was 19.5 µmol/kg in assay [1] and above 94 µmol/kg in assay [4] (Rattus norvegicus, 6 h). For the same compound, the IC50 in assay [2] (Rattus norvegicus) came to 69 nM; in assay [3] it was 31 nM; in assay [5], 83 nM.

On to `OCCN1CC=C(C2=CC(c3ccc(F)cc3)c3ccc(C(F)(F)F)cc32)CC1` (centres unmarked) [Lu 20-004, 3-(4'-Fluorophenyl)-1-(1-hydroxyethyl-1,2,3,6-tetrahydropyrid-4-yl)-6-trifluoromethyl-1-indene, hydrobromide], for which the median effective dose (ED50) came to 1 µmol/kg in assay [1] and 1.3 µmol/kg in assay [4] (Rattus norvegicus, 6 h). For the same compound, the concentration for half-maximal inhibition (IC50) in assay [2] (Rattus norvegicus) was found to be 3260 nM; in assay [3] it was 35 nM.

In the case of `Cc1ccc2c(c1)C(C1CCN(CCO)CC1)=CC2c1ccc(F)cc1` (centres unmarked) [Lu 20-008, 3-(4'-Fluorophenyl)-1-(1-hydroxyethyl-4-piperidyl)-6-methyl-1-indene, hydrochloride], the ED50 in assay [1] is 0.64 µmol/kg; in assay [4] (Rattus norvegicus, 6 h) it was 2.3 µmol/kg. Further, the IC50 is 16 nM in assay [2] (Rattus norvegicus), 4 nM in assay [3] and 8.9 nM in assay [5].

For the compound `CSc1ccc2c(c1)C(N1CCN(C)CC1)Cc1ccccc1S2` (centres unmarked) [Methiothepin, reference compound], the median effective dose (ED50) was determined as 2.5 µmol/kg in assay [1] and 2.3 µmol/kg in assay [4] (Rattus norvegicus, 6 h). Moreover, the IC50 in assay [2] (Rattus norvegicus) was 58 nM; in assay [3], 6.8 nM; in assay [5], 2.6 nM.

Turning to `O=C(c1ccc(F)cc1)C1CCN(CCn2c(=O)[nH]c3ccccc3c2=O)CC1` [Ketanserin, reference compound], the IC50 in assay [2] (Rattus norvegicus) was above 10000 nM; in assay [5], 2300 nM.

As for `CN1CCC(C2=CC(c3ccc(F)cc3)c3ccc(C(F)(F)F)cc32)CC1` (centres unmarked) [Lu 20-071, 3-(4'-Fluorophenyl)-1-(1-methyl-4-piperidyl)-6-trifluoromethyl-1-indene, hydrobromide], the ED50 stood at 1.7 µmol/kg in assay [1] and 2 µmol/kg in assay [4] (Rattus norvegicus, 6 h). Further, the half-inhibitory concentration (IC50) in assay [2] (Rattus norvegicus) was 1000 nM; in assay [3] it was 15 nM.

`Cc1ccc2c(c1)C(C1=CCN(C)CC1)=CC2c1ccc(F)cc1` (centres unmarked) [Lu 20-041, 3-(4'-Fluorophenyl)-6-methyl-1-(1-methyl-1,2,3,6-tetrahydropyrid-4-yl)-1-indene, hydrobromide]: the ED50 in assay [1] (setting [6]) stood at 0.14 µmol/kg; in assay [4] (setting [8]), 1.6 µmol/kg. For the same compound, in assay [2] (setting [7]), the IC50 was 85 nM.

Take `Cc1ccc2c(c1)C(C1=CCN(C)CC1)C=C2c1ccc(F)cc1` (centres unmarked) [Lu 20-040, 3-(4'-Fluorophenyl)-6-methyl-1-(1-methyl-1,2,3,6-tetrahydropyrid-4-yl)-2-indene, hydrobromide]: the ED50 amounted to 0.7 µmol/kg in assay [1] (setting [6]) and 5.5 µmol/kg in assay [4] (setting [8]). Besides, the half-maximal inhibitory concentration (IC50) in assay [2] (setting [7]) came out at 62 nM.

Turning to `OCCN1CCC(C2=CC(c3ccc(F)cc3)c3ccc(F)cc32)CC1` (centres unmarked) [Lu 19-158, hydrochloride], the ED50 was 4.2 µmol/kg in assay [1] and 26 µmol/kg in assay [4] (Rattus norvegicus, 6 h). Also, the concentration for half-maximal inhibition (IC50) turned out to be 26 nM in assay [2] (Rattus norvegicus), 2.8 nM in assay [3] and 12 nM in assay [5].
